# “Also recorded” adds a separate entry of the source.
# Assays:
# Format in all cases: in vivo
# [1] = system: A498 human renal carcinoma; test: A498 renal tumour xenograft in SCID mice, SEQ ID NO:1 and interferon alpha
# Procedure: Cell line: Human renal carcinoma cell line (A498) was grown as monolayer culture in Minimum essential medium (α-MEM) supplemented with 10% fetal bovine serum (FBS), 0.1 mM non-essential amino acid, 1.0 mM sodium pyruvate, 100 U/ml penicillin, 100 μg/ml streptomycin and 0.25 μg/ml amphotericin B and 2 mM L-alanyl-1-glutamine at 37° C. in an atmosphere of 5% CO2 in air. The tumour cells were routinely subcultured twice weekly by trypsin-EDTA treatment. The cells were harvested from subconfluent logarithmically growing culture by treatment with trypsin-EDTA and counted for tumour inoculation.
# Tumour Inoculation: An acclimation period of at least 7 days was allowed between animal receipt and commencement of tumour inoculation. When the female SCID mice were 6-7 weeks of age (20-25 g), each mouse was subcutaneously injected with 9×10^6 A498 human renal carcinoma cells in 0.1 ml of PBS at the right flank of the mice to induce tumour growth.
# Dose Preparation and Treatment: The dose for SEQ ID NO:1 was formulated using the following procedure. From a concentrated stock solution (usually prepared in ddH2O at a concentration of 50 mg/ml and kept at −80° C.), SEQ ID NO:1 was diluted with saline to achieve a final target concentration of 1 or 2.5 mg/ml on the first day of dosing. Enough SEQ ID NO:1 was diluted so that the compound could be administered by bolus infusion into the tail vein every other day for the duration of the experiment. Recombinant interferon alfa-2b (ntron A™) was employed according to the dose and treatment schedules below. The treatments were started 20 days after the tumour cell inoculation when the tumour size reached an approximate volume of 200 mm^3. Each treatment group contained 10 tumour-bearing mice. Routes of administration are as follows: intravenous (i.v.) and intratumoural (i.t.).
# • 1. Saline treated group-1: saline 0.1 ml/mouse/48 hours, i.v., n=10 • 2. Saline treated group-2: saline 0.05 ml/mouse/5 days/week, i.t., n=10 • 3. SEQ ID NO:1 treated group: 1 mg/kg/48 hours in 0.1 ml saline, i.v. n=10 • 4. SEQ ID NO:1 treated group: 2.5 mg/kg/48 hours in 0.1 ml saline, i.v., n=10 • 5. […]
# Treatment started from day 20 after inoculation of human renal tumour cells. […]
# Endpoints: The effects of SEQ ID NO:1 and Intron A on tumour growth was determined. Tumour sizes were measured every week from day 20 after the tumour cell inoculation in two dimensions using a caliper, and the volume was expressed in mm^3 using the formula: V=0.5 a×b^2, where a and b are the long and short diameters of the tumour, respectively. Mean tumour volumes calculated from each measurement were then plotted in a standard graph to compare the anti-tumour efficacy to that of controls. A day after the last treatment, tumours were excised from the animals and their weights were measured. […]
# [2] = system: SK-OV-3 human ovary adenocarcinoma cells; test: SK-OV-3 ovary tumour xenograft in CD-1 nude mice
# Procedure: SK-OV-3 human ovary adenocarcinoma cells (1×10^7 cells in 100 μl of PBS) were subcutaneously injected into the right flank of 6-7 weeks old female CD-1 nude mice. After the size of tumour reached an approximate volume of 100 mm^3, 6 days post tumour cell injection, SEQ ID NO:1 was administered by bolus infusion into the tail vein every other day at 10 mg/kg 17 times. Control animals received saline alone for the same period. Antitumour effect of SEQ ID NO: 1 was further compared to that of taxol or cisplatin alone or in combination. Taxol was administered intravenously once a week for first three weeks and intraperitoneally once a week for next two weeks at a dose of 10 mg/kg. Cisplatin was administered intravenously once a week for first three weeks and intraperitoneally once a week for next two weeks at a dose of 4 mg/kg. All treatments were stopped at day 40. Antitumour activities were estimated by the inhibition of tumour volume, which was measured with caliper. Each point represents mean tumour volume calculated from 9 animals per experimental group.
# [3] = system: BxPC-3 human pancreatic carcinoma cells; test: BxPC-3 gemcitabine resistant pancreatic carcinoma xenograft in CD-1 nude mice
# Procedure: BxPC-3 human pancreatic carcinoma cells (3×10^6 cells in 100 μl of PBS) were subcutaneously injected into the right flank of 6-7 weeks old female CD-1 nude mice. BxPC-3 is a gemcitabine resistant call line. After the size of tumour reached an approximate volume of 100 mm^3, 21 days post tumour cell injection, SEQ ID NO:1 was administered by bolus infusion into the tail vein every other day at 10 mg/kg 17 times. Control animals received saline alone for the same period. Antitumour effect of SEQ ID NO:1 was further compared to that of Gemcitabine. Gemcitabine was administered intravenously every three days at a dose of 100 mg/kg. Antitumour activities were estimated by the inhibition of tumour volume, which was measured with caliper. Each point represents mean tumour volume calculated from 10 animals per experimental group. […] As expected, treatment with Gemcitabine during the same period was ineffective against Gemcitabine-resistant tumour (FIGS. 19A & B).
# [4] = system: Hela S3 human cervix epitheloid carcinoma cells; test: Hela S3 hydroxyurea resistant cervix carcinoma xenograft in SCID mice
# Procedure: Hela S3 human cervix epitheloid carcinoma cells (5×10^5 cells in 100 μl of PBS) were subcutaneously injected into the right flank of 6-7 weeks old female SCID mice. Hela S3 is a hydroxyurea resistant cell line. After the size of tumour reached an approximate volume of 100 mm^3, 3 days post tumour cell injection, SEQ ID NO:1 was administered by bolus infusion into the tail vein every other day at 10 mg/kg 6 times. Control animals received saline alone for the same period. Antitumour effect of SEQ ID NO:1 was further compared to that of Hydroxyurea or Cisplatin alone or in combination. Hydroxyurea was administered intraperitoneally every day at a dose of 250 mg/kg for 10 days. Cisplatin was administered intravenously once a week for three weeks at a dose of 4 mg/kg. Antitumour activities were estimated by the inhibition of tumour volume, which was measured with caliper. Each point represents mean tumour volume calculated from 10 animals per experimental group. […] As expected, treatment with Hydroxyurea during the same period was ineffective against Hydroxyurea-resistant tumour.
sequence,measurement,setting,value
"GGCTAAATCGCTCCACCAAG (chemistry not given here) [SEQ ID NO: 1, antisense oligonucleotide that hybridizes to the coding region of human ribonucleotide reductase R2 mRNA]","anti-tumour efficacy (tumour volume, tumour weight)","[1]; Example 6, SEQ ID NO:1 1 or 2.5 mg/kg/48 hours i.v., Intron A 10^3 or 10^5 unit 5 days/week i.t.",significant anti-tumour efficacy
same,"anti-tumour efficacy (tumour volume, tumour weight)","[1]; Example 7, SEQ ID NO:1 2.5 mg/kg/2ds i.v., 10000 units Intron A x5/week for 2 weeks i.t.",significant anti-tumour efficacy
same,antitumour effect (tumour volume),"[2]; SEQ ID NO:1 10 mg/kg 17 times, taxol 10 mg/kg, cisplatin 4 mg/kg once a week",significant delay of tumour growth
same,tumour volume data as percentage of saline control,"[2]; SK-OV-3 (ovary), Mouse CD-1",42%
same,Tumour weight as % of saline control,"[3]; BxPC-3 (pancreatic), Gemcitabine resistance, CD-1",5.8%
same,antitumour effect (tumour volume),"[3]; SEQ ID NO:1 10 mg/kg 17 times i.v., Gemcitabine 100 mg/kg i.v. every three days",significant delay of tumour growth
same,Tumour weight as % of saline control,"[4]; Hela S3 (cervix), hydroxyurea resistance, SCID",24%
same,antitumour effect (tumour volume),"[4]; SEQ ID NO:1 10 mg/kg 6 times, Hydroxyurea 250 mg/kg i.p. 10 days, Cisplatin 4 mg/kg i.v. weekly",significant delay of tumour growth; also recorded: superior to the inhibitory effects observed with Cisplatin alone

# — patent US20080311126A1, “Antisense Oligonucleotides Directed to Ribonucleotide Reducatase R2 and Uses Thereof in Combination Therapies for the Treatment of Cancer” (Genesense Technologies, Inc, priority 2004, published 2008)
